Entries after “also recorded” stand apart in the source; their conditions may differ.
Experiments:
S. sanguinis SK36 = experiment: Planktonic growth, S. sanguinis SK36 (OD470); format: cell-based, Streptococcus sanguinis
Procedure: (§1) The bacterial strains, S. mutans UA159, S. gordonii DL1, and S. sanguinis SK36 were inoculated statically at 37° C. under 5% CO2 in Todd Hewitt Broth (THB) for 24 h. The cultures were then diluted with fresh THB (1:5) and reinoculated until optical density at 470 nm (OD470) reached 1. The optical density was read using BioTek 800TS microplate reader at 470 nm for bacterial growth and 562 nm for biofilm stained with crystal violet. Data was plotted in Graphpad Prism9.
(§2) S. mutans, S. gordonii, and S. sanguinis growth assays. Effects of compounds on S. mutans and commensal bacterial growth were evaluated using the growth assay as described^69. S. mutans UA159, S. gordonii DL1, S. sanguinis SK36, cultures were grown for 24 h under 5% CO2 at 37° C. These cultures were then reinoculated with fresh THB (1:5) until OD470=1 when the bacteria were ready to be used. Different concentrations of the inhibitor were assayed in chemically defined media (CDM) with 1% of the bacteria, 1% sucrose and 1% DMSO in 96 well plates. The 96 well plates were incubated under 5% CO2 at 37° C. for 16 h. Growth of the bacteria was read after 16 h at OD470. Each assay was carried out at least in triplicate.
(§3) All bacterial strains (S. mutans UA159, S. gordonii DL1, and S. sanguinis SK36) were inoculated statically at 37° C. under 5% CO2 environment in Todd Hewitt Broth (THB) for 24 h^[61]. The cultures were then diluted with fresh THB (1:5) and reinoculated until the optical density at 470 nm reaches 1. The optical density was read using BioTek 800 TS absorbance reader at 470 nm for bacterial growth and 562 nm for biofilm stained with crystal violet. Data was plotted in Prism 10.0.2.
as §2, with “Effects” for “S. mutans, S. gordonii, and S. sanguinis growth assays. Effects”, “PEHA5, PEHA6, HA5 or HA6” for “compounds”, “described^[62].” for “described^69.”, “PEHA5, PEHA6, HA5 or HA6” for “inhibitor”, “CDM” for “chemically defined media (CDM)”

[1] = Body weight of animals, HEBI / HA5 study; format: in vivo, Fischer 344 rats; details: for Weight: 100 μM (NaF 250 ppm), 4 weeks
Procedure: Rat model of dental caries. In vivo studies of colonization and virulence of S. mutans were evaluated using a previously reported rat model of dental caries^71. Offspring of gnotobiotic Fischer 344 rats used in this experiment were bred and maintained in trexler isolators. Male and female rat pups were removed from isolators at 20 days of age and randomly assigned into 5 treatment groups of 5 rats/group in cages with filter tops. Rats were then infected with S. mutans UA159 strain by oral swabbing daily for four consecutive days with a fresh overnight culture of S. mutans UA159. Rats were provided with caries promoting Teklad Diet 305 containing […] (Harlan Laboratories, Inc., Indianapolis, IN) and sterile drinking water ad libitum. Oral swabs were taken 5 days post-infection and plated on Todd Hewitt (TH) agar plates and incubated at 37° C. in an environment of 5% CO2 in the air to confirm colonization. Rats were weighed at weaning and at the termination of the experiment. One-week post-infection, the molars of the rats were treated topically twice daily for 4 weeks with the test compounds using camel-hair brushes. […] Each sample was serially diluted, plated on blood agar plates (BAP) and mitis-salivarius (MS) agar plates and incubated in an environment of 5% CO2 at 37° C. to quantify the level of total bacteria and S. mutans present in the plaque. […] After drying, the mandibles were sectioned and scored for caries activity using the Keyes method^68. Caries scores were recorded for the buccal, sulcal and proximal molar surfaces individually so that differences among the surfaces can be distinguished. Statistical significance in the mean caries scores, colony-forming units (CFUs)/mandible and body weights between groups of rats were determined by one-way analysis of variance (ANOVA) with the Tukey-Kramer multiple comparison test using the InStat program (Graphpad Software, San Diego, CA). […]

S. gordonii DL1 = experiment: Planktonic growth, S. gordonii DL1 (OD470); format: cell-based, Streptococcus gordonii
Procedure: as §1, §2, §3
as §2, with “Effects” for “S. mutans, S. gordonii, and S. sanguinis growth assays. Effects”, “PEHA5, PEHA6, HA5 or HA6” for “compounds”, “described^[62].” for “described^69.”, “PEHA5, PEHA6, HA5 or HA6” for “inhibitor”, “CDM” for “chemically defined media (CDM)”

S. mutans UA159 = experiment: Planktonic growth, S. mutans UA159 (OD470); format: cell-based, Streptococcus mutans
Procedure: as §1, §2, §3
as §2, with “Effects” for “S. mutans, S. gordonii, and S. sanguinis growth assays. Effects”, “PEHA5, PEHA6, HA5 or HA6” for “compounds”, “described^[62].” for “described^69.”, “PEHA5, PEHA6, HA5 or HA6” for “inhibitor”, “CDM” for “chemically defined media (CDM)”

With `O=C1/C(=C/c2cc(O)c(O)cc2O)Oc2ccccc21` [HA5, 2-[(2′,4′,5′-Trihydroxyphenyl)methylidene]-2,3-dihydro-1-benzofuran-3-one] the “planktonic growth of S. sanguinis” value (S. sanguinis SK36; 25 μM) was “did not affect the planktonic growth”, the “growth of S. sanguinis” value (S. sanguinis SK36; 50 μM and 100 μM (100 μM)) was “did not inhibit the growth; also recorded: does not inhibit the growth” and the “growth of S. sanguinis” value (S. sanguinis SK36; at biofilm inhibiting doses) was “without affecting the growth”. The Weight [1] was 137 ± 13 g, the “weight loss” value ([1]; 4-week treatment, 100 μM) was “did not experience any weight loss” and the “planktonic growth of S. gordonii” value (S. gordonii DL1; 25 μM) was “did not affect the planktonic growth”. For the same compound, the “growth of S. gordonii” value (S. gordonii DL1; 50 μM and 100 μM (100 μM)) was “did not inhibit the growth; also recorded: does not inhibit the growth”, the “dose without growth inhibition of commensals (100 μM) relative to biofilm IC50” value (S. gordonii DL1; DL1) was 14 fold and the “growth of S. gordonii” value (S. gordonii DL1; at biofilm inhibiting doses) was “without affecting the growth”. For the same compound, the “planktonic growth of S. mutans” value (S. mutans UA159; 25 μM) was “did not affect the planktonic growth”, the “planktonic growth of S. mutans” value (S. mutans UA159; 50 μM) was “did not inhibit the planktonic growth; also recorded: no effect on growth; also recorded: did not inhibit the growth significantly” and the “growth of S. mutans” value (S. mutans UA159; 50 μM and 100 μM) was “did not inhibit S. mutans growth”.
In the case of `[F-].[Na+]` [NaF, reference compound], the Weight [1] is reported as 161 ± 13 g.
In the case of `O=C1/C(=C/c2cc(O)c(O)c(O)c2)Oc2ccccc21` [HA6, 2-[(3′,4′,5′-Trihydroxyphenyl)methylidene]-2,3-dihydro-1-benzofuran-3-one], the “growth of S. sanguinis” value (S. sanguinis SK36; 25 μM and 50 μM) is reported as “did not inhibit the growth”, the “growth of S. sanguinis” value (S. sanguinis SK36; at biofilm inhibiting doses) is reported as “without affecting the growth” and the “growth inhibition of S. gordonii” value (S. gordonii DL1; 25 μM and 50 μM) is reported as “about 10%”. For the same compound, the “growth of S. gordonii” value (S. gordonii DL1; at biofilm inhibiting doses) was “without affecting the growth”, the “viability of S. mutans” value (S. mutans UA159; 25 μM and 50 μM) was “did not inhibit S. mutans viability” and the “planktonic growth of S. mutans” value (S. mutans UA159; 50 μM) was “did not inhibit the planktonic growth; also recorded: no effect on growth; also recorded: inhibited the planktonic growth slightly”.
